According to patent US6872706B2, “Glucopyranosyloxybenzylbenzene derivatives and medicinal compositions containing the same” (Kissei Pharmaceutical Co., Ltd., priority 2000, dated 2005):

Columns and labels:
[1] = target: T1, human SGLT2 (Homo sapiens, UniProt P31639, I433V); experiment: Assay for inhibitory effect on human SGLT2 activity (uptake of methyl-α-D-glucopyranoside in COS-7 cells expressing transiently human SGLT2); type: cell-based; details: inhibition of methyl-α-D-(U-14C)glucopyranoside uptake, COS-7 cells expressing transiently human SGLT2, 37° C., 2 hours
T1 construct: expressed in transfected cells; host or cells: COS-7 cells (RIKEN CELL BANK RCB0539), transient, electroporation
T1 sequence (P31639 1-672 I433V): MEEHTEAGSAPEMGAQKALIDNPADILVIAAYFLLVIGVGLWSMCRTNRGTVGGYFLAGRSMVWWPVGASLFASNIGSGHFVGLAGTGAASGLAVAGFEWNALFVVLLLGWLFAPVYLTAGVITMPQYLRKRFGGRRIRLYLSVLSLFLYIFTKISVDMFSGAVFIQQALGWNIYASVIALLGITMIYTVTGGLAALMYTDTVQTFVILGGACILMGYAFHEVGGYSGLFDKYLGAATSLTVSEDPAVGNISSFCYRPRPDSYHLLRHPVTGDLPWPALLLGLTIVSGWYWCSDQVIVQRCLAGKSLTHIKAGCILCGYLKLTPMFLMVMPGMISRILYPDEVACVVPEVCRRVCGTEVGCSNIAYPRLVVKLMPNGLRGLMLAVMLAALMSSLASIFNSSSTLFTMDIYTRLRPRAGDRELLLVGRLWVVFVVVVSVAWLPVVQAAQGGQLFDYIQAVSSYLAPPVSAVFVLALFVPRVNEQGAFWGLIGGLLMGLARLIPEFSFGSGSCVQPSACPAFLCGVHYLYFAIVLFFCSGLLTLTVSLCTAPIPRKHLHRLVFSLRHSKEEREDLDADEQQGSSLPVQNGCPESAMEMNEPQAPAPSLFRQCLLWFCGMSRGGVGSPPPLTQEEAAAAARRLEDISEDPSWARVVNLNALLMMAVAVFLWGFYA
Method: Assay for Inhibitory Effect on Human SGLT2 Activity
1) Construction of the Plasmid Vector Expressing Human SGLT2
Preparation of the cDNA library for PCR amplification was performed by reverse transcription of a total RNA deprived from human kidney (Ori gene) with oligo dT as the primer, using […] Preamplification System (Gibco-BRL: LIFE TECHNOLOGIES). […] The amplified DNA fragment was ligated into pCR-Blunt (Invitrogen), a vector for cloning, according to standard method of the kit. The competent cell, Escherichia coli HB101 (Toyobo), was transformed according to usual method and then selection of the transformants was performed on the LB agar medium containing 50 μg/mL of kanamycin. After the plasmid DNA was extracted and purified from the one of the transformants, amplifying of the DNA fragment coding for human SGLT2 was performed by the Pfu DNA Polymerase (Stratagene)-used PCR reaction, in which the following oligo nucleotides 0714F and 0715R, presented as Sequence Numbers 3 and 4 respectively, were used as the primers. The amplified DNA fragment was digested with restriction enzymes, Xho I and Hind III, and then purified with Wizard Purification System (Promega). This purified DNA fragment was inserted at the corresponding multi-cloning sites of pcDNA3.1 (−) Myc/His-B (Invitrogen), a vector for expressing of fusion protein. The competent cell, Escherichia coli HB101 (Toyobo), was transformed according to usual method and then selection of the transformant was performed on the LB agar medium containing 100 μg/mL of ampicillin. After the plasmid DNA was extracted and purified from this transformant, the base sequence of the DNA fragment inserted at the multi-cloning sites of pcDNA3.1 (−) Myc/His-B was analyzed. […] This plasmid vector expressing human SGLT2 in which the peptide presented as Sequence Number 5 is fused to the carboxyl terminal alanine residue was designated KL29.
2) Preparation of the Cells Expressing Transiently Human SGLT2
KL29, the plasmid coding human SGLT2, was transfected into COS-7 cells (RIKEN CELL BANK RCB0539) by electroporation. Electroporation was performed with GENE PULSER II (Bio-Rad Laboratories) under the condition: 0.290 kV, 975 μF, 2×10^6 cells of COS-7 cell and 20 μg of KL29 in 500 μL of OPTI-MEM I medium (Gibco-BRL: LIFE TECHNOLOGIES) in the 0.4 cm type cuvette. After the gene transfer, the cells were harvested by centrifugation and resuspended with OPTI-MEM I medium (1 mL/cuvette). To each well in 96-wells plate, 125 μL of this cell suspension was added. After overnight culture at 37° C. under 5% CO2, 125 μL of DMEM medium which is containing 10% of fetal bovine serum (Sanko Jyunyaku), 100 units/mL sodium penicillin G (Gibco-BRL: LIFE TECHNOLOGIES) and 100 μg/mL streptomycin sulfate (Gibco-BRL: LIFE TECHNOLOGIES) was added to each well. After a culture until the following day, these cells were used for the measurement of the inhibitory activity against the uptake of methyl-α-D-glucopyranoside.
3) Measurement of the Inhibitory Activity Against the Uptake of Methyl-α-D-Glucopyranoside
After a test compound was dissolved in dimethyl sulfoxide and diluted with the uptake buffer (a pH 7.4 buffer containing 140 mM sodium chloride, 2 mM potassium chloride, 1 mM calcium chloride, 1 mM magnesium chloride, 5 mM methyl-α-D-glucopyranoside, 10 mM 2-[4-(2-hydroxyethyl)-1-piperazinyl]ethane sulfonic acid and 5 mM tris (hydroxymethyl) aminomethane), each diluent was used as test sample for measurement of the inhibitory activity.

[2] = Assay for the facilitatory effect on urinary glucose excretion; type: in vivo; details: non-fasted male SD rats, oral, urine collected 24 hours
Method: Assay for the Facilitatory Effect on Urinary Glucose Excretion
As experimental animal, non-fasted SD rats (SLC. Inc., male, 8 weeks of age, 270-320 g) were used. A test compound was suspended in 0.5% sodium carboxymethylcellulose solution and 0.3, 1 and 3 mg/mL suspension were prepared. Adler the body weights of rats were measured, the test suspension was orally administered at the dose of 10 mL/kg (3, 10 and 30 mg/kg). For the control, just only 0.5% sodium carboxymethylcellulose solution was orally administered at the dose of 10 mL/kg. The oral administration was performed with gastric tube for rat and 2.5 mL syringe. The head count in one group was 5 or 6. Collection of urine was performed in metabolic cage after the oral administration was finished. The sampling time for collection of urine was 24 hours after the oral administration. After collection of urine was finished, the urine volume was recorded and the urinary glucose concentration was measured. The glucose concentration was measured with a kit for laboratory test: Glucose B-Test WAKO (Wako Pure Chemical Industries, Ltd.). The amount of urinary glucose excretion in 24 hours per 200 g of body weight was calculated from urine volume, urinary glucose concentration and body weight.

[3] = Acute toxicity test; type: in vivo; details: male ICR mice, oral 600 mg/kg, until 24 hours after the administration, 5 animals in each group
Method: Four weeks old male ICR mice (CLEA JAPAN, INC. 22-28 g, 5 animals in each group) were fasted for 4 hours, and 60 mg/mL of a suspension of a test compound in 0.5% sodium carboxymethylcellulose solution was orally administered at the dose of 10 mL/kg(600 mg/kg).

Row | SMILES | IC50 [1] [nM] | other results
1 | CCOc1ccc(Cc2ccccc2O[C@@H]2O[C@H](CO)[C@@H](O)[C@H](O)[C@H]2O)cc1 [Reference Example 15, 2-(4-Ethoxybenzyl)phenyl β-D-glucopyranoside] | 330 | –
2 | CCSc1ccc(Cc2ccccc2O[C@@H]2O[C@H](CO)[C@@H](O)[C@H](O)[C@H]2O)cc1 [Reference Example 17, 2-(4-Ethylthiobenzyl)phenyl β-D-glucopyranoside] | 110 | –
3 | CC(C)Cc1ccc(Cc2ccccc2O[C@@H]2O[C@H](CO)[C@@H](O)[C@H](O)[C@H]2O)cc1 [Reference Example 14, 2-(4-Isobutylbenzyl)phenyl β-D-glucopyranoside] | 500 | –
4 | COc1ccc(Cc2ccccc2O[C@@H]2O[C@H](CO)[C@@H](O)[C@H](O)[C@H]2O)cc1 [Reference Example 11, 2-(4-Methoxybenzyl)phenyl β-D-glucopyranoside] | 350 | –
5 | CCc1ccc(Cc2ccccc2O[C@@H]2O[C@H](CO)[C@@H](O)[C@H](O)[C@H]2O)cc1 [Reference Example 13, 2-(4-Ethylbenzyl)phenyl β-D-glucopyranoside] | 140 | –
6 | CC(C)Oc1ccc(Cc2ccccc2O[C@@H]2O[C@H](CO)[C@@H](O)[C@H](O)[C@H]2O)cc1 [Reference Example 16, 2-(4-Isopropoxybenzy)phenyl β-D-Glucopyranoside] | 370 | –
7 | CCOC(=O)OC[C@H]1O[C@@H](Oc2ccccc2Cc2ccc(OC)cc2)[C@H](O)[C@@H](O)[C@@H]1O [Example 1, 2-(4-Methoxybenzyl)phenyl 6-O-ethoxycarbonyl-β-D-glucopyranoside] | – | Amount of Urinary Glucose Excretion ([2]; dose 3 mg/kg): 52 mg/24 hours · 200 g body weight; Amount of Urinary Glucose Excretion ([2]; dose 10 mg/kg): 239 mg/24 hours · 200 g body weight; Amount of Urinary Glucose Excretion ([2]; dose 30 mg/kg): 513 mg/24 hours · 200 g body weight; Death number [3]: 0/5
